Key:
Format in all cases: cell-based, Saccharomyces cerevisiae
Abp1 (1xFLAG) = assay: Western blot expression level of Abp1 SH3-swapped baits (Fig. S2A-B); design: Flag (2 bands): unit not given here; details: sheet FigS2A-B; for Ratio Swap/WT Flag: Flag signal relative to Abp1 WT (Abp1-1 to Abp1-4 = 1); for Flag (2 bands): Western blot Flag signal (2 bands), Abp1 WT, SH3-deleted or SH3-swapped
Description: Precultures of yeast cells expressing baits fused with the DHFR F[1,2]-FLAG were grown overnight at 30 °C with agitation in synthetic complete medium. The next day, cells were expanded in synthetic complete medium to reach their exponential phase (OD600 of around 1.0), pelleted, and frozen at −80 °C. The equivalent of fifty OD600 of cells was resuspended in ice-cold yeast lysis buffer (10 mM Tris-HCl pH 7.4, 150 mM NaCl, 0.5 mM EDTA (Millipore Sigma), 1% Triton X-100 (Millipore Sigma), and one cOmplete Mini Protease Inhibitor Cocktail (Millipore Sigma) per 10 mL) with […] glass beads (Millipore Sigma) and disrupted at 4 °C by 10 cycles of 2 min vortexing and 2 min cooldown. The equivalent of […] of lysed cells was used for the immunoprecipitation of the bait proteins using FLAG-M2 agarose beads (Millipore Sigma). The beads were incubated with the cell lysates for 120 min at 4 °C with a slow rotation, followed by three washes with the yeast lysis buffer.
Protein extracts and affinity-purified baits from yeast and human lysed cells were migrated on 10% polyacrylamide gels. The separated proteins were then transferred to nitrocellulose membranes. Validation of correct protein loading was done with ponceau staining of the membranes. Before the primary antibody incubations, membranes were blocked in 5% milk. Protein signals were detected on an Amersham Imager 600RGB (GE Healthcare) following the incubation of the membranes with the appropriate HRP-conjugated secondary antibodies and the Clarity Western ECL Substrate (Bio-Rad). The antibodies used in this study are M2-HRP (A8592, Sigma, 1/50,000), rabbit anti-FLAG (F7425, Sigma, 1/1000), PAK (SC-881, Santa Cruz, 1/200), p130cas/BCAR1 (SC-860, Santa Cruz, 1/200), actin (Cell Signaling Technology, 1/2000), anti-mouse HRP (Cell Signaling Technology, 1/10,000) and anti-rabbit HRP (Cell Signaling Technology, 1/10,000). The quantification of the WB signals was performed with the Amersham Imager 600 analysis software (GE Healthcare).

Abp1 PPIs = assay: DHFR-PCA of Abp1 SH3-swapped baits (Fig. 2B-D, S2C, S2F); details: number of interactions of Abp1 carrying the named SH3; sheet FigS2A-B
Description: Having determined that multiple PPIs require SH3s, we asked whether the latter establish PPI specificity independently from their host proteins by swapping domains (Fig. 2A). Using the second round of genome editing, we individually replaced Abp1 SH3 with the 27 yeast SH3s and 3 human Abp1 orthologs’ SH3s (CTTN, HCLS1, and DBNL, Fig. 2B). The reintroduction of its own SH3 (Abp1SH3 in Abp1) reconstitutes almost perfectly Abp1’s interaction profile (Kendall’s τ = 0.93, Fig. 2B). […] No homologous SH3 domain fully re-establishes the normal Abp1 PPI profile (Fig. 2B and Supplementary Fig. 2C). However, we observe a significant correlation (cophenetic correlation = 0.20, p value = 0.005, Fig. 2C) between the similarity of PPI profiles (Fig. 2B) and the sequence similarity of the SH3s. […] Nonetheless, a subset of SH3-dependent PPIs is only observed with the endogenous domain. For instance, Hua2 and App1, both well-characterized partners of Abp1[14],[18],[19], are only detected when Abp1 contains its own SH3 (WT or swapped via editing). A given SH3 may therefore not be fully replaceable with other paralogous or orthologous domains. This pattern is confirmed by cellular growth phenotypic analyses (Supplementary Fig. 2D, E). PPIs, SH3 sequence similarity, and growth profiles under stress conditions are correlated (Supplementary Fig. 2D, E). This relationship is particularly clear when analyzing growth on media supplemented with hygromycin.
The stuffing of YSC84 SH3 rendered the strain sterile and was therefore not used for this study as the assays require crosses. For genes containing two SH3s (BZZ1 and BEM1), a combination of this first stuffer with a second one ([…]) coding for a highly similar linker ([…]) was used, which allowed targeting each SH3 position independently. The two N-terminal domains of SLA1, which are separated by six nucleotides, were stuffed by a single stuffer. Cells containing pCAS were selected via the G418 resistance cassette from the plasmid on YPD plates (YPD + NAT 100 μg/ml (DHFR F[1,2] selection) + G418 200 µg/mL (Bioshop Canada)). Colonies were randomly selected and grown in YPD media without G418 to allow plasmid loss. The correct insertion of the stuffer was validated by PCR and Sanger sequencing. The SH3-swapped, -shuffled, and -mutated strains were constructed following a second CRISPR–Cas9 editing step with the same procedures. The stuffer sequences were targeted by specific gRNAs (one gRNA per stuffer) and replaced by PCR amplified specific SH3 (with 40 bp homology arms) or libraries of mutated SH3 domains for Deep Mutational Scanning (DMS) with 78 bp flanking homology regions. Validation of the SH3 domain insertions was done as we previously described except for DMS libraries (see below).
The overall DHFR-PCA pipeline is based on Tarassov et al.[43] and the procedures have also been published as a visualized protocol. The screens were performed with robotically manipulated pin tools (BM5-SC1, S&P Robotics Inc.). First, the preys were cherry-picked from 96-well plates to omnitrays in a 384 format on YPD + HPH solid media. Plates were then combined into the 1536 format on YPD + HPH. The array was constituted of 575 preys previously shown to interact physically with at least one SH3-containing protein as reported in BioGRID V3.4.16 along with 40 negative controls. The prey array comprised a border of control strains of two rows and two columns corresponding to the PPI between LSM8-DHFR F[1,2] and CDC39-DHFR F[3]. This double border was used to remove border effects. Preys are present in duplicate at a randomized position in the 1536 array (except for YAL041W which is present four times per array). Baits were crossed with two prey plates, resulting in four independent bait–prey tests for each PPI. Baits were grown in liquid YPD + NAT and then transferred on solid YPD + NAT omnitrays. They were then replicated on YPD + NAT omnitrays in 1536 array format. […]

BOI2 = assay: DHFR-PCA on solid medium, bait BOI2 (Fig. 1B); details: bait BOI2, label = prey; 3-8 replicates
Description: (§1) Supplement 41467_2021_21873_MOESM8_ESM.xlsx, sheet "Fig1B" | column: medsize; medrep; Ratio; Score

ABP1 = assay: DHFR-PCA on solid medium, bait ABP1 (Fig. 1B); details: bait ABP1, label = prey; 2-4 replicates
Description: as §1

BEM1-2 = assay: DHFR-PCA on solid medium, bait BEM1-2 (Fig. 1B); details: bait BEM1-2, label = prey; 2-8 replicates
Description: as §1

BEM1-1 = assay: DHFR-PCA on solid medium, bait BEM1-1 (Fig. 1B); details: bait BEM1-1, label = prey; 2-8 replicates
Description: as §1

BUD14 = assay: DHFR-PCA on solid medium, bait BUD14 (Fig. 1B); details: bait BUD14, label = prey; for medrep (log2 median colony size normalized to plate background, PCA score): 4 replicates
Description: as §1

BZZ1-1 = assay: DHFR-PCA on solid medium, bait BZZ1-1 (Fig. 1B); details: bait BZZ1-1, label = prey; 4 replicates
Description: Supplement 41467_2021_21873_MOESM8_ESM.xlsx, sheet "Fig1B" | column: medsize; medrep; Score

[1] = system: 575 putative partners (preys) of 22 WT SH3-containing proteins; assay: DHFR-PCA on solid medium, WT and SH3-deleted baits (Fig. 1B); design: key to Score: 0: SH3-independent; 1: SH3-dependent PPIs; 2: SH3-inhibited PPIs; details: for medrep (log2 median colony size normalized to plate background, PCA score): bait SLA1-3, DHFR-PCA, label = prey, Replicates 4 (2 for YCR009C, YDR388W, YIL033C); for Score: bait SLA1-3, label = prey
Description: To assess the requirement of SH3 domains for PPIs in vivo, we first measured binary interactions between 22 WT SH3-containing proteins (Supplementary Fig. 1A) as baits and 575 putative partners from their interconnected signaling networks using the dihydrofolate reductase protein–fragment complementation assay (DHFR-PCA) in the budding yeast Saccharomyces cerevisiae. About 33% (202/607) of the PPIs detected were described before, mostly by direct methods (Supplementary Fig. 1B, C)[11]. We repeated the experiments with baits in which the SH3s were individually replaced with a flexible linker by genome editing (SH3 domain deletion/stuffing, Fig. 1A). The stuffer DNA sequence ([…]) codes for a small flexible poly-Gly with Ser peptide ([…]) that is inspired by previous experiments[12],[13]. About a third of the SH3-containing protein interactome is qualitatively or quantitatively SH3-dependent (171 PPIs out of 607, Fig. 1B and Supplementary Fig. 1B, C). We validated the vast majority of the quantitative changes in low-throughput experiments and excluded that this is simply due to changes in protein abundance in most cases (Supplementary Fig. 1D–G). SH3-binding motifs[14] are more frequent in the SH3-dependent PPI partners when compared to sequences from random proteins, SH3-independent PPI partners or PPI partners that are stronger or gained following SH3 deletions (p values = 1.5 × 10^−17, 0.0038 and 2.1 × 10^−08, respectively; Mann–Whitney test, one-tailed, Fig. 1C). The changes we measure are therefore enriched for PPIs that depend on the direct interactions of the domains with the PPI partners.
The complete list of strains, primers, and gRNAs used in this study can be found in Supplementary Tables 1–3. All constructed yeast strains were validated by polymerase chain reaction (PCR) and confirmed by Sanger sequencing of the locus of interest. Bait strains for the DHFR-PCA experiments were constructed as follows. The genes of interest were fused at their genomic 3′ end by replacing the stop codon with a linker ([…]), the DHFR F[1,2] followed by a smaller linker (GGGGS), a 1× FLAG tag ([…]) and the NATMX4 resistance cassette via homologous recombination (all amplified from pAG25-DHFR[1,2]-linker-FLAG). The set of 615 prey strains (DHFR F[3] fusions in the BY4742 background) were retrieved from the Yeast Protein Interactome Collection[43] with the exception of 73 that were reconstructed (Supplementary Tables 1 and 2). Knockout strains were taken from the yeast knockout collection except for ABP1, BEM1, BZZ1, and SLA1, which were reconstructed by replacing the ORFs with the NATMX4 resistance cassette by homologous recombination in the BY4741 background.
Yeast SH3 domain genomic sequences were replaced by CRISPR–Cas9 genome editing. Each SH3 domain (as defined by the SMART database V8.0 except for Ysc84 SH3 (as defined by PROSITE), see Source Data for all SH3 sequences and Supplementary Table 1 for primers used) was specifically targeted by one gRNA[46]. Yeast competent cells were co-transformed with a pCAS plasmid (Addgene plasmid 60847[47]) expressing both the gRNA of interest and Streptococcus pyogenes Cas9[46] and a donor DNA sequence (stuffer) with 60 bp homology arms surrounding the SH3 DNA sequence. The Stuffer DNA was either PCR amplified or digested from a plasmid. The stuffer DNA sequence ([…]) codes for a small flexible linker ([…]) inspired by protein linkers used in structural biology[12],[13]. This type of linker is frequently used for fusing proteins without affecting the structure of the linked proteins.
The overall DHFR-PCA pipeline is based on Tarassov et al.[43] and the procedures have also been published as a visualized protocol. The screens were performed with robotically manipulated pin tools (BM5-SC1, S&P Robotics Inc.). First, the preys were cherry-picked from 96-well plates to omnitrays in a 384 format on YPD + HPH solid media. […]

BBC1 = assay: DHFR-PCA on solid medium, bait BBC1 (Fig. 1B); details: bait BBC1, label = prey; 2-4 replicates
Description: as §1

BOI1 = assay: DHFR-PCA on solid medium, bait BOI1 (Fig. 1B); details: bait BOI1, label = prey
Description: as §1

[2] = only significant differences showed, PPIs completely lost have a ratio of 0.1 and the gained PPIs 2.5

Substance | Ratio Swap/WT Flag (Abp1 (1xFLAG)) | Flag (2 bands) (Abp1 (1xFLAG)) | Interactions in Abp1 (Abp1 PPIs) | medrep (log2 median colony size normalized to plate background, PCA score) (BOI2) | medrep (log2 median colony size normalized to plate background, PCA score) (ABP1) | medrep (log2 median colony size normalized to plate background, PCA score) (BEM1-2) | medrep (log2 median colony size normalized to plate background, PCA score) (BEM1-1) | medrep (log2 median colony size normalized to plate background, PCA score) (BUD14) | Ratio (SH3-deleted/WT medrep) (BUD14; [2]) | medrep (log2 median colony size normalized to plate background, PCA score) (BZZ1-1) | medrep (log2 median colony size normalized to plate background, PCA score) [1] | Score [1] | medrep (log2 median colony size normalized to plate background, PCA score) (BBC1) | medrep (log2 median colony size normalized to plate background, PCA score) (BOI1; 3-8 replicates) | Ratio (SH3-deleted/WT medrep) (BOI1; [2])
Cdc25 | 0.6887 | 152280 | 27 | – | – | – | – | – | – | – | – | – | – | – | –
Rvs167 | 0.1645 | 38158 | 91 | – | – | – | – | – | – | – | – | – | – | – | –
YBR234C | – | – | – | 2.566 | 5.488 | 2.151 | 2.151 | 1.638 | 0.1 | 4.45 | 5.2 | 0 | 5.076 | – | –
YDL229W | – | – | – | 3.977 | 5.461 | 3.594 | 3.594 | 3.548 | – | 4.468 | 5.405 | 0 | 5.103 | 2.407 | 2.5

— publication PMC7954794, “Protein context shapes the specificity of SH3 domain-mediated interactions in vivo” (Nature Communications, 2021)
